In patent publication US20070059311A1, “Regulation of the hedgehog signaling pathway and uses thereof” (priority 2005, published 2007):

Experiments:
Hep2G cells = test: TUNNEL (TUNEL) apoptosis assay; format: cell-based; conditions: 2 μM
Protocol: (§1) TUNEL assay was performed using a kit from Roche Biochemicals according to published procedure (Athar et al., 2004). Briefly, cells were fixed with 4% paraformaldehyde at room temperature for 1 h and permeated with 0.1% Triton X-100, 0.1% sodium citrate (freshly prepared) on ice for 2 min. After washing with PBS, each sample was incubated with 50 μl of TUNEL reaction mixture at 37° C. for 30 min. TUNEL labeled solution (without enzyme) was used as a negative control. TUNEL positive cells were counted under a fluorescent microscope. The counting was repeated three times and the percentage from each counting was calculated.

Hep3B cells [1] = test: TUNNEL (TUNEL) apoptosis assay; format: cell-based; conditions: 2 μM
Protocol: as §1

GI cancer cells = GI cancer cells (Ma et al., 2006); cited from earlier work
Hep3B cells [2] = test: Trypan blue cell death assay; format: cell-based; conditions: KAAD-cyclopamine 2 μM
Protocol: (§2) HCC cell cell lines (Hep3B, HepG2, HCC36, PLC/PRF/5 (identified as PLC) and Huh 7) were provided by Chiaho Shih, Tien Ko and Kui Li at UTMB. All cells were cultured in Dulbeco-modified essential medium (DMEM) with 10% FBS and antibiotics. […] In addition, the specific inhibition of hedgehog signaling in HCC cells was achieved by addition of Shh neutralizing antibodies (1 μg/ml in 0.5% FBS DMEM, Car# SC-9024, Santa Cruz Biotechnology, Santa Cruz, Calif.). […] Transient transfection of Gli1 in HCC cells was performed using LipofectAmine according to the manufacturer's recommendation (Plasmid-LipofectAmine=1:2.5). Cells with ectopic expression of Gli1 were subjected to drug treatment and to TUNEL (terminal deoxynucleotidyl transferase-mediated dUTP nick end labeling) assay.
(§3) For cell viability analysis, two methods were used: trypan Blue analysis and MTT assay. Trypan Blue analysis was performed to manufacturer's instruction (Invitrogen, CA). The percentage of trypan blue positive cell (dead cells) were calculated under a microscope and triplicates of samples for each treatment were used in a 96-well format. Twenty microliters of MTT (10 mg/ml in PBS) was added to each well (containing 100 μl cultured medium, 0.5% FBS DMEM). […] Thirty minutes later, absorbance was measured at 570 nm using a microplate reader from Molecular Devices Co., Sunnyvale, Calif. […]

Huh7 cells [3] = test: BrdU incorporation; format: cell-based
[4] = test system: Huh 7 cells that transiently expressed Gli1; test: TUNEL assay in cells with ectopic expression of Gli1; format: cell-based; conditions: Huh 7 cells transiently expressing Gli1 under CMV promoter
Protocol: as §1

[5] = test system: liver cancer cells with activated hedgehog signaling pathway; test: induction of apoptosis in liver cancer cells; format: cell-based; conditions: 2 μM KAAD-cyclopamine
Protocol: as §1

[6] = test system: cells regardless of hedgehog signaling; test: toxicity of KAAD-cyclopamine to cells regardless of hedgehog signaling; format: cell-based; conditions: 5 or 10 μM
Shh promoter = test: sonic hedgehog promoter activity (luciferase reporter) in HCV expressing cells; format: cell-based; conditions: Huh7 cells with stable expression of HCV; HCV RNA replication inhibited by interferon treatment
Description: Furthermore, the present invention also examined whether HCV RNA replication was a major trigger for activated hedgehog signaling in Hepatocellular carcinoma. In order to do so, cell lines with or without HCV RNA replication for the sonic hedgehog (shh) promoter activity were compared. The promoter activity of SHH was higher in Huh7 cells than in HepG2 cells. […] However, the shh promoter activity was reduced when the HCV RNA replication was inhibited by interferon treatment as shown in 2-3c (FIG. 7B).

Huh7-2-3(+) cells = test: real-time PCR of Gli1 in HCV replicating cells after interferon; format: cell-based; conditions: Huh7-2-3(+) cells treated with interferon (giving Huh7-2-3(−) cells)
Description: The activation of hedgehog signaling pathway in hepatocellular carcinoma infected with virus or bacteria was also examined. Huh7 cells are hepatocellular carcinoma cells that can support HCV replication (Scholle F. et al., 2004. Huh7-2-3(+) are Huh7 cells that allow active HCV replication and Huh7-2-3(−) cells are derived from Huh7-2-3(+) cells following interferon treatment for two weeks to prevent virus replication. SIIA are gastric cancer cells with hedgehog signaling activation and used as control.

Huh7 cells [7] = test: MTT cell growth assay; format: cell-based; conditions: tomatidine, negative control
Protocol: as §2, §3

Hep3B cells [8] = test: real-time PCR of hedgehog target genes Gli1 and PTCH1 after drug treatment; format: cell-based; conditions: 2 μM
Protocol: as §2

Compound | apoptosis (TUNNEL assay) (Hep2G cells) | apoptosis (TUNNEL assay) (Hep3B cells [1]) | concentration that could cause non-specific toxicity (GI cancer cells) | level of cell death (Trypan blue) (Hep3B cells [2]) | BrdU incorporation (Huh7 cells [3]) | TUNEL / sensitivity to treatment [4] | time within which apoptosis is induced [5] | toxicity to cells [6] | shh promoter activity (Shh promoter) | expression of Gli1 (Huh7-2-3(+) cells) | cell growth (MTT assay) (Huh7 cells [7]) | levels of Gli1 and PTCH1 transcripts (Hep3B cells [8])
KAAD-cyclopamine | no detectable apoptosis | apoptosis | 10 µM | increased level of cell death | reduced | negative for TUNEL | ≤ 12 h | quite toxic |  |  |  | 
interferon |  |  |  |  |  |  |  |  | reduced | reduced |  | 
C[C@H]1CC[C@]2(NC1)O[C@H]1C[C@H]3[C@@H]4CC[C@H]5C[C@@H](O)CC[C@]5(C)[C@H]4CC[C@]3(C)[C@H]1[C@@H]2C [tomatidine] | did not induce apoptosis | did not induce apoptosis |  |  |  |  |  |  |  |  | did not affect cell growth | little discemible effect
